Assay results from EP4715056A1, “BIO-BASED TRANS-ACONITATE, PREPARATION METHOD THEREFOR AND USE THEREOF” (Qingdao Institute of Bioenergy and Bioprocess Technology, …, priority 2023, dated 2024).

Experiments:
Format in all cases: physicochemical
[1] = Tensile properties (GB/T 1040-2006): tensile modulus at 100%, elongation at break, elastic modulus; conditions: PVC plastic with 35 parts plasticizer; 50 mm/min, 25°C
Description: (§1) The aconitates and tributyl citrate prepared in the above examples and comparative examples were added as plasticizers to PVC resin to obtain PVC plastics. The PVC plastics include 100 parts of PVC resin, 35 parts of plasticizer, 2 parts of oxidized polyethylene wax, and 5 parts of octyltin maleate. The above raw materials were mixed and prepared using the same mixing process to obtain finished PVC products. The performance tests were performed on different plasticizers and the obtained PVC finished products in the above examples and comparative examples. […] Three points were selected for each group of samples, each point was tested once, and a median value was taken. • 2. […] Compatibility: tests were performed using a water value method. Since water molecules are polar, the compatibility between the plasticizer and water can characterize the compatibility between the plasticizer and polar materials (PVC, PLA, and nitrile rubber). When a certain plasticizer has good compatibility with water, it has good compatibility with PVC, and vice versa. In the experiment, 2.5 g of plasticizer and 25 g of acetone were added to a beaker, titrated with a burette filled with deionized water, and agitated while titrating until turbidity appears, and the volume of deionized water consumed was recorded. • 4. Glass transition temperature (Tg): the glass transition temperature was tested using a dynamic mechanical analyzer. Test conditions: nitrogen was taken as the carrier gas, at a test temperature range of -40 to 80°C, a heating rate of 3°C/min, and a frequency of 1 Hz.

[2] = Compatibility (water value method); conditions: 2.5 g plasticizer and 25 g acetone titrated with deionized water until turbidity; Table 5
Description: as §1

[3] = Chromaticity (platinum-cobalt colorimetry); conditions: aconitate/citrate products, Table 4; colour comparison at 25°C
Description: 3. Chromaticity: preparation of 500# platinum-cobalt colorimetric standard stock solution: 1.2450 g of potassium chloroplatinate and 1.0000 g of cobalt chloride were weighed, with an accuracy of 0.0002 g, the mixture was dissolved in 100 mL of hydrochloric acid, and then diluted to 1000 mL with distilled water. This solution is just the 500# colorimetric standard comparison solution.
Preparation of colorimetric standards below 500#: different amounts of the 500# stock solution was prepared, and diluted with distilled water to the volume of a colorimetric tube to prepare colorimetric standard solutions of any number. The calculation formula is as follows: V = (N×V1)/500 [formula]
In the formula, V is the volume of the 500# standard stock solution taken to prepare the N# colorimetric standard solution, in mL; V1 is the volume of the colorimetric tube used, in mL; and N is the number of the colorimetric standard solution to be prepared.
Color comparison determination was performed at 25°C.

[4] = Residual amounts of fat-soluble and water-soluble pigments (HPLC); conditions: aconitate/citrate products, Table 4
Description: 7. Residual amounts of fat-soluble pigments and water-soluble pigments: • a high-performance liquid chromatograph (HPLC) was used, and the instrument sensitivity and stability of the detector should comply with the provisions of GB/T 16631-2008. Chromatographic column: C18 column; injector: 10 µL micro-syringe; solvent: acetonitrile (HPLC grade); acquisition time: 15 min; mobile phase: 80% acetonitrile (HPLC grade) and 20% deionized water; injection volume: 1 µL; wavelength: 230 nm.
Test: the instrument was adjusted according to the above provisions. After the baseline was stable, 0.2 µL of the sample was injected using a micro-syringe, and the integrator or chromatographic workstation was started at the same time. A pigment concentration-integral area standard curve was established by testing the integral areas of pigments with different concentrations. When the pigment content was measured, the corresponding pigment integral area was automatically given by the instrument, and the pigment concentration was obtained by comparing with the standard curve. The ratio of the pigment concentration to the sample concentration is the pigment content.

[5] = Glass transition temperature (dynamic mechanical analyzer); conditions: PVC plastic with 35 parts plasticizer; -40 to 80°C, 3°C/min, 1 Hz
Description: as §1

[6] = Water content (Karl Fischer moisture meter); conditions: aconitate/citrate products, Table 4
Text: 6. Water content: a Karl Fischer moisture meter is used to test the water content (retained to two decimal places).

[7] = Hardness (Shore hardness tester, GB/T 531-2008); conditions: PVC plastic: 100 parts PVC resin, 35 parts plasticizer, 2 parts oxidized polyethylene wax, 5 parts octyltin maleate
Description: as §1, with “The PVC plastics include 100 parts of PVC resin, 35 parts of plasticizer, 2 parts of oxidized polyethylene wax, and 5 parts of octyltin maleate.” left out

[8] = Acid value (KOH titration); conditions: aconitate/citrate products, Table 4
Description: The aconitates and citrates prepared in the above examples and comparative examples were tested for acid value, purity, chromaticity, yield, triester conversion rate, and water content. […] The mixture was neutralized with 0.02 mol·L^-1 potassium hydroxide aqueous solution until a faint pink color appears, and the consumed volume Vo was recorded. 1 g of the sample (accurate to 0.01 g) was weighed using a ground-neck conical flask, then one portion of the above neutralized solution was added. After the sample was completely dissolved, the sample was titrated with 0.02 mol·L^-1 potassium hydroxide-ethanol standard titration solution (the titration should be completed within 30 seconds) until a faint pink color appeared and persisted for 5 seconds without fading, which was considered as an end point. The consumed volume V was recorded. […] Chromatographic column: C18 column; injector: 10 µL micro-syringe; solvent: acetonitrile (HPLC grade); acquisition time: 15 min; mobile phase: 80% acetonitrile (HPLC grade) and 20% deionized water; injection volume: 1 µL; wavelength: 230 nm.

Compound	Elastic modulus [1] [MPa]	Elongation at break [1] [%]	Tensile modulus at 100% [1] [MPa]	Compatibility [2] [mL]	Chromaticity [3] [Pt-Co]	Residual amounts of fat-soluble pigments [4] [ppm]	Residual amounts of water-soluble pigments [4] [ppm]	Tg [5] [°C]	Water content [6] [%]	Hardness/Shore D [7] [Shore D]	Acid value [8] [KOH/g]
CCOC(=O)C=C(CC(=O)OCC)C(=O)OCC [Example 21, triethyl aconitate]	135.5	243.6	15.8	18.4	30	385	328	28.2	0.02	43	0.05
CCCCOC(=O)C=C(CC(=O)OCCCC)C(=O)OCCCC [Example 23, tributyl aconitate]	128.7	239.4	15.6	13.1	60	1356	842	28.4	0.03	43	0.05
CCCCOC(=O)C=C(CC(=O)OCCCC)C(=O)OCCCC [Example 24, tributyl aconitate]	131.0	242.7	15.7	13.1	60	1386	420	28.6	0.02	43	0.05
CCCCOC(=O)C=C(CC(=O)OCCCC)C(=O)OCCCC [Example 25, tributyl aconitate]	156.4	226.5	17.2	12.7	50	865	454	28.2	0.03	45	0.05
CCCCOC(=O)C=C(CC(=O)OCCCC)C(=O)OCCCC [Example 26, tributyl aconitate]	178.3	234.1	17.5	12.2	70	2015	465	28.8	0.04	45	0.05
CCCCOC(=O)C=C(CC(=O)OCCCC)C(=O)OCCCC [Example 27, tributyl aconitate]	166.7	230.3	17.3	12.4	200	4650	415	28.5	0.05	45	0.05
CCCCOC(=O)C=C(CC(=O)OCCCC)C(=O)OCCCC [Example 28, tributyl aconitate]	88.5	248.6	15.2	14.4	40	1658	408	28.6	0.04	42	0.05
CCCCOC(=O)C=C(CC(=O)OCCCC)C(=O)OCCCC [Example 29, tributyl aconitate]	92.6	251.6	15.4	14.9	60	435	1302	28.8	0.03	42	0.05
CCCCOC(=O)C=C(CC(=O)OCCCC)C(=O)OCCCC [Example 30, tributyl aconitate]	134.8	241.7	15.8	13.2	65	463	1501	28.9	0.04	43	0.05
CCCCOC(=O)C=C(CC(=O)OCCCC)C(=O)OCCCC [Example 31, tributyl aconitate]	157.6	231.5	17.2	12.5	60	427	1715	29.6	0.03	45	0.05
CCCCOC(=O)C=C(CC(=O)OCCCC)C(=O)OCCCC [Example 32, tributyl aconitate]	133.4	241.2	15.6	13.1	60	382	1325	28.7	0.02	43	0.05
